From ChEMBL document CHEMBL5727836, “Treatment of infectious diseases with glucose uptake inhibitors” (2020)
pIC50: −log10 of the molar value.

Assay: ATP Assay: HT1080 cells (as well as other cell types) were plated to confluency in 96-well plates. Cells were exposed to the combination of 10 μM Oligomycin (to block mitochondrial-derived ATP), and the glucose uptake inhibitor compounds for one-hour, after which glycolytically-dervied ATP was measured with the Cell Titer-Glo assay kit (Promega). Dose-response curves of the glucose uptake inhibitor compounds were used to determine the IC50 for GLUT activity.
Conditions: HT-1080, 1 h

Question: With CC(C)NC(=O)COc1cccc(-c2nc(Nc3ccc(-c4cn[nH]c4)cc3)c3cnn(C)c3n2)c1 as the compound, how does the IC50 read?
Answer: in the range around 375 nM

Question: Which IC50 does the source give for CC(C)NC(=O)COc1cccc(-c2nc(Nc3ccc(-c4cn[nH]c4)cc3)c3ncsc3n2)c1 here?
Answer: in the range around 375 nM

Question: For CC(C)NC(=O)COc1cccc(-c2nc(Nc3ccc(-c4cn[nH]c4)cc3)c3ccncc3n2)c1, which IC50 is on record?
Answer: in the range around 55 nM

Question: Which IC50 does the source give for CC(C)NC(=O)COc1cccc(-c2nc(Nc3ccc(-c4cn[nH]c4)cc3)c3cnccc3n2)c1 here?
Answer: in the range around 55 nM

Question: With CC(=O)N1CCc2nc(-c3cccc(OCC(=O)NC(C)C)c3)nc(Nc3ccc(-c4cn[nH]c4)cc3)c2C1 as the compound, how does the IC50 read?
Answer: in the range around 175 nM

Question: With CC(=O)N1CCc2nc(-c3cccc(OCC(=O)NC(C)(C)C)c3)nc(Nc3ccc(-c4cn[nH]c4)cc3)c2C1 as the compound, how does the IC50 read?
Answer: in the range around 55 nM

Question: Which IC50 does the source give for CC(C)NC(=O)COc1cccc(-c2nc3c(c(Nc4ccc(-c5cn[nH]c5)cc4)n2)CN(C(=O)C(C)C)CC3)c1 here?
Answer: in the range around 55 nM

Question: Which IC50 does the source give for CCC(C)NC(=O)COc1cccc(-c2nc3c(c(Nc4ccc(-c5cn[nH]c5)cc4)n2)COC3)c1 (stereo not drawn) here?
Answer: in the range around 55 nM

Question: With Cn1ncc2c(Nc3ccc(-c4cn[nH]c4)cc3)nc(-c3cccc(OCC(=O)NC4CCC4)c3)nc21 as the compound, how does the IC50 read?
Answer: in the range around 375 nM

Question: Which IC50 does the source give for CC(=O)N1CCc2nc(-c3cccc(OCC(=O)NCC(C)C)c3)nc(Nc3ccc(-c4cn[nH]c4)cc3)c2C1 here?
Answer: in the range around 55 nM

Question: For O=C(COc1cccc(-c2nc(Nc3ccc(-c4cn[nH]c4)cc3)c3sccc3n2)c1)NC1CCCC1, which IC50 is on record?
Answer: in the range around 55 nM

Question: With O=C(COc1cccc(-c2nc(Nc3ccc(-c4cn[nH]c4)cc3)c3sccc3n2)c1)NC1CCC1 as the compound, how does the IC50 read?
Answer: in the range around 175 nM

Question: With CCC(CC)NC(=O)COc1cccc(-c2nc3c(c(Nc4ccc(-c5cn[nH]c5)cc4)n2)CN(C(C)=O)CC3)c1 as the compound, how does the IC50 read?
Answer: in the range around 55 nM

Question: For O=C(COc1cccc(-c2nc3c(c(Nc4ccc(-c5cn[nH]c5)cc4)n2)COCC3)c1)NC1CCC1, which IC50 is on record?
Answer: in the range around 55 nM

Question: Which IC50 does the source give for O=C(COc1cccc(-c2nc3c(c(Nc4ccc(-c5cn[nH]c5)cc4)n2)CSC3)c1)NC1CCC1 here?
Answer: in the range around 175 nM

Question: Which IC50 does the source give for CCC(CC)NC(=O)COc1cccc(-c2nc3c(c(Nc4ccc(-c5cn[nH]c5)cc4)n2)COC3)c1 here?
Answer: in the range around 55 nM

Question: With O=C(COc1cccc(-c2nc(Nc3ccc(-c4cn[nH]c4)cc3)c3occc3n2)c1)NC1CCC1 as the compound, how does the IC50 read?
Answer: in the range around 375 nM

Question: With O=C(COc1cccc(-c2nc(Nc3ccc(-c4cn[nH]c4)cc3)c3ncsc3n2)c1)NC1CCC1 as the compound, how does the IC50 read?
Answer: in the range around 375 nM

Question: For O=C(COc1cccc(-c2nc(Nc3ccc(-c4cn[nH]c4)cc3)c3ccncc3n2)c1)NC1CCCC1, which IC50 is on record?
Answer: in the range around 55 nM

Question: For CC(=O)N1Cc2nc(-c3cccc(OCC(=O)NC(C)C)c3)nc(Nc3ccc(-c4cn[nH]c4)cc3)c2C1, which IC50 is on record?
Answer: in the range around 175 nM

Question: For CCC(C)(C)NC(=O)COc1cccc(-c2nc(Nc3ccc(-c4cn[nH]c4)cc3)c3sccc3n2)c1, which IC50 is on record?
Answer: in the range around 175 nM

Question: Which IC50 does the source give for CC(C)(C)CNC(=O)COc1cccc(-c2nc3c(c(Nc4ccc(-c5cn[nH]c5)cc4)n2)COC3)c1 here?
Answer: in the range around 55 nM

Question: Which IC50 does the source give for CC(C)NC(=O)COc1cccc(-c2nc3c(c(Nc4ccc(-c5cn[nH]c5)cc4)n2)COCC3)c1 here?
Answer: in the range around 55 nM

Question: Which IC50 does the source give for CC(=O)N1CCc2nc(-c3cccc(OCC(=O)NC4CCCC4)c3)nc(Nc3ccc(-c4cn[nH]c4)cc3)c2C1 here?
Answer: in the range around 55 nM

Question: With CC(C)NC(=O)COc1cccc(-c2nc3c(c(Nc4ccc(-c5cn[nH]c5)cc4)n2)CSC3)c1 as the compound, how does the IC50 read?
Answer: in the range around 375 nM

Question: With CC(C)(C)NC(=O)COc1cccc(-c2nc3c(c(Nc4ccc(-c5cn[nH]c5)cc4)n2)COC3)c1 as the compound, how does the IC50 read?
Answer: in the range around 55 nM

Question: With CCC(C)NC(=O)COc1cccc(-c2nc3c(c(Nc4ccc(-c5cn[nH]c5)cc4)n2)COCC3)c1 (stereo not drawn) as the compound, how does the IC50 read?
Answer: in the range around 55 nM

Question: With O=C(CN1CCOCC1)Nc1cccc(-c2nc(Nc3ccc(-c4cn[nH]c4)cc3)c3ccsc3n2)c1 as the compound, how does the IC50 read?
Answer: in the range around 175 nM

Question: Which IC50 does the source give for CC(C)CNC(=O)COc1cccc(-c2nc3c(c(Nc4ccc(-c5cn[nH]c5)cc4)n2)COC3)c1 here?
Answer: in the range around 55 nM

Question: For Cn1ncc2c(Nc3ccc(-c4cn[nH]c4)cc3)nc(-c3cccc(OCC(=O)NC4CCCC4)c3)nc21, which IC50 is on record?
Answer: in the range around 175 nM

Question: For CC(=O)N1Cc2nc(-c3cccc(OCC(=O)NC(C)(C)C)c3)nc(Nc3ccc(-c4cn[nH]c4)cc3)c2C1, which IC50 is on record?
Answer: in the range around 55 nM

Question: For O=C(COc1cccc(-c2nc(Nc3ccc(-c4cn[nH]c4)cc3)c3occc3n2)c1)NC1CCCC1, which IC50 is on record?
Answer: in the range around 375 nM

Question: For CC(C)CNC(=O)COc1cccc(-c2nc(Nc3ccc(-c4cn[nH]c4)cc3)c3ncccc3n2)c1, which IC50 is on record?
Answer: in the range around 175 nM

Question: Which IC50 does the source give for O=C(COc1cccc(-c2nc(Nc3ccc(-c4cn[nH]c4)cc3)c3ncsc3n2)c1)NC1CCCC1 here?
Answer: in the range around 175 nM

Question: Which IC50 does the source give for CC(C)(C)NC(=O)COc1cccc(-c2nc(Nc3ccc(-c4cn[nH]c4)cc3)c3cnccc3n2)c1 here?
Answer: in the range around 55 nM

Question: For CC(C)CNC(=O)COc1cccc(-c2nc3c(c(Nc4ccc(-c5cn[nH]c5)cc4)n2)COCC3)c1, which IC50 is on record?
Answer: in the range around 55 nM

Question: With CC(C)(C)CNC(=O)COc1cccc(-c2nc3c(c(Nc4ccc(-c5cn[nH]c5)cc4)n2)COCC3)c1 as the compound, how does the IC50 read?
Answer: in the range around 55 nM

Question: With Cn1cnc2c(Nc3ccc(-c4cn[nH]c4)cc3)nc(-c3cccc(OCC(=O)NC4CCC4)c3)nc21 as the compound, how does the IC50 read?
Answer: in the range around 375 nM

Question: Which IC50 does the source give for CC(C)NC(=O)COc1cccc(-c2nc(Nc3ccc4[nH]ncc4c3)c3sccc3n2)c1 here?
Answer: in the range around 55 nM

Question: For CC(C)CNC(=O)COc1cccc(-c2nc(Nc3ccc(-c4cn[nH]c4)cc3)c3cnn(C)c3n2)c1, which IC50 is on record?
Answer: in the range around 175 nM

Question: Which IC50 does the source give for O=C(COc1cccc(-c2nc3c(c(Nc4ccc(-c5cn[nH]c5)cc4)n2)COCC3)c1)NC1CCCC1 here?
Answer: in the range around 55 nM

Question: For CCC(CC)NC(=O)COc1cccc(-c2nc3c(c(Nc4ccc(-c5cn[nH]c5)cc4)n2)CN(C(C)=O)C3)c1, which IC50 is on record?
Answer: in the range around 55 nM

Question: With O=C(COc1cccc(-c2nc(Nc3ccc(-c4cn[nH]c4)cc3)c3sccc3n2)c1)NC1CC1 as the compound, how does the pIC50 read?
Answer: 6.12

Question: Which IC50 does the source give for CC(C)CNC(=O)COc1cccc(-c2nc(Nc3ccc(-c4cn[nH]c4)cc3)c3ncsc3n2)c1 here?
Answer: in the range around 375 nM

Question: For O=C(COc1cccc(-c2nc(Nc3ccc(-c4cn[nH]c4)cc3)c3ccncc3n2)c1)NC1CCC1, which IC50 is on record?
Answer: in the range around 55 nM

Question: With O=C(COc1cccc(-c2nc3c(c(Nc4ccc(-c5cn[nH]c5)cc4)n2)CSC3)c1)NC1CCCC1 as the compound, how does the IC50 read?
Answer: in the range around 175 nM

Question: Which IC50 does the source give for CC(C)(C)NC(=O)COc1cccc(-c2nc(Nc3ccc(-c4cn[nH]c4)cc3)c3sccc3n2)c1 here?
Answer: in the range around 175 nM

Question: With O=C(COc1cccc(-c2nc3c(c(Nc4ccc(-c5cn[nH]c5)cc4)n2)COC3)c1)NC1CC(F)(F)C1 as the compound, how does the IC50 read?
Answer: in the range around 175 nM
